Assay results: patent US20110263817A1, “METAL-BINDING COMPOUNDS AND USES THEREFOR” (priority 1999, published 2011)
Each block holds one compound with its values, some of them ahead of it. Residues, ends and D or L forms follow the SMILES beside them. No end group written: not given here.

Columns and labels:
[1] = system: human umbilical vein endothelial cells (HUVEC); experiment: Copper-induced IL-8 secretion from HUVEC (ELISA); assay type: cell-based; settings: 25 μM CuCl2, 24 hours; P<0.007
Description: Human umbilical vein endothelial cells (HUVEC) (5.0×10^4 cells) were incubated in serum-free and ascorbate-free endothelial cell basal medium-2 (EGM2) medium (BioWhittaker) with ITS supplement with (i) copper, (ii) a tetrapeptide analogue of the high-affinity, N-terminal Cu(II) binding site of human albumin (D-Asp D-Ala D-His D-Lys or d-DAHK), or (iii) both of them (n=3, in duplicate). IL-8 was determined by ELISA (see Example 13). […] Upon visual examination, all cells appeared to be viable at 24 hours.

[2] = Passage through a model of the blood brain barrier; assay type: in vitro ADME
[3] = Cu(II)/H2O2 hydroxyl radical generation, 2-deoxy-D-ribose degradation (TBA, 532 nm), Example 7; assay type: biochemical; settings: CuCl2 0.1 mM, H2O2 2.0 mM
Description: The ability of the L-tetrapeptide to inhibit the generation of ROS was tested as described in Gutteridge and Wilkins, Biochim. Biophys. Acta, 759, 38-41 (1983) and Cheeseman et al., Biochem. J., 252, 649-653 (1988). Briefly, Cu(II) and H2O2 were mixed causing the generation of hydroxyl radicals in a Fenton-type reaction. The hydroxyl radicals attack the sugar 2-deoxy-D-ribose (the sugar residue of DNA) to produce fragments. Heating the fragments at low pH produces malonaldehyde that, upon the addition of 2-thiobarbituric acid, yields a pink chromogen which can be measured spectrophotometrically at 532 nm. Thus, the absorbance at 532 nm is a measure of the damage to 2-deoxy-D-ribose.
The assay was performed with and without the L-tetrapeptide. […] Clearly, the L-tetrapeptide inhibited the degradation of 2-deoxy-D-ribose by hydroxyl radicals.

[4] = Inhibition of hydroxyl radical production, Cu(II)/ascorbic acid deoxyribose/TBA assay, Example 10; assay type: biochemical; settings: for % Inhibition (decrease in absorbance compared to buffer alone): CuCl2 10 μM; for formation of the pink chromogen: data not shown
Description: The ability of the compounds listed above to inhibit the generation of hydroxyl radicals was tested as described in Gutteridge and Wilkins, Biochim. Biophys. Acta, 759:38-41 (1983). Briefly, Cu(II) and ascorbic acid were mixed causing the generation of hydroxyl radicals. Then, deoxyribose was added, and the hydroxyl radicals, if present, attacked the deoxyribose to produce fragments. […]. Thus, absorbance at 532 nm is a measure of the damage to deoxyribose and, therefore, of hydroxyl radical formation.
To perform the assay, CuCl2 in buffer (20 mM KH2PO4 buffer, pH 7.4) and either one of the test compounds in buffer or buffer alone were added to test tubes (final concentration of CuCl2 was 10 μM). The test tubes were incubated for 15 minutes at room temperature. Then, 0.5 mM ascorbic acid in buffer and 1.9 mM 2-deoxy-D-ribose in buffer were added to each test tube, and the test tubes were incubated for 1 hour at 37° C. Finally, 1 ml of 1% (w/v) TBA in 50 mM NaOH and 1 ml of concentrated acetic acid were added to each test tube, and the test tubes were incubated in boiling water for 15 minutes. After the test tubes had cooled for 15 minutes, the absorbance at 532 nm was read.
Histidine and several peptides with histidine in different positions were tested at 1:1 and 2:1 peptide:copper ratios for their ability to inhibit the production of hydroxyl radicals. Also, a peptide having an acetylated aspartic acid (Ac-Asp) as the N-terminal amino acid was also tested. In Table 11, the % inhibition is the percent decrease in absorbance compared to buffer alone divided by the absorbance of the buffer alone.

[5] = Inhibition of hydroxyl radical production by peptides, Cu(II)/ascorbic acid deoxyribose/TBA assay, Example 16; assay type: biochemical
Description: The ability of the peptides listed in Table 14 to inhibit the generation of hydroxyl radicals was tested. Hydroxyl radicals were generated by mixing Cu(II) and ascorbic acid. When deoxyribose was added, the hydroxyl radicals, if present, attacked the deoxyribose to produce fragments. Heating the fragments at low pH produced malonaldehyde that, upon the addition of 2-thiobarbituric acid (TBA), yielded a pink chromogen which was measured spectrophotometrically at 532 nm. Thus, absorbance at 532 nm is a measure of the damage to deoxyribose and, therefore, of hydroxyl radical formation.
To perform the assay, (a) 50 μl of 200 μM CuCl2 in water, (b) water or enough of one of the test peptides in water (total volume of 150 μl) to give peptide:copper ratios of 1:4, 1:2, 1:1, 2:1, 4:1, 6:1 and 8:1, and (c) 525 μl buffer (20 mM KH2PO4 buffer, pH 7.4) were added to test tubes. The test tubes were incubated for 15 minutes at room temperature. Then, 25 μl of 20 mM ascorbic acid in buffer and 250 μl of 7.5 mM 2-deoxy-D-ribose in water were added to each test tube, and the test tubes were incubated for 1 hour at 37° C. Finally, 1 ml of 1% (w/v) TBA in 50 mM NaOH and 1 ml of glacial acetic acid were added to each test tube, and the test tubes were incubated in boiling water for 15 minutes. After the test tubes had cooled for 15 minutes, the absorbance at 532 nm was read. The results are presented in attached FIGS. 26A-V.

[6] = compound:copper 1:1, copper only control 0.767
[7] = compound:copper 2:1, copper only control 0.767
[8] = peptide:copper ratios of 2:1 or less
[9] = compound:copper 1:1, copper only control 0.954
[10] = compound:copper 2:1, copper only control 0.954

Compound: [Cl][Cu][Cl] [CuCl2]
IL-8 secretion as compared to controls incubated with water [1]: > 5.5 fold higher

Percent Inhibition (degradation of 2-deoxy-D-ribose) ([3]; tetrapeptide 0.12 mM (Cu(II):tetrapeptide 1:1.2)): 38% | Percent Inhibition (degradation of 2-deoxy-D-ribose) ([3]; tetrapeptide 0.2 mM (Cu(II):tetrapeptide 1:2)): 73%
Compound: C[C@H](NC(=O)[C@@H](N)CC(=O)O)C(=O)N[C@@H](Cc1c[nH]cn1)C(=O)N[C@@H](CCCCN)C(=O)O [L-Asp L-Ala L-His L-Lys] (H-DAHK-OH)
passage through a model of the blood brain barrier [2]: pass through a model of the blood brain barrier

Compound: Acetylated-L-Asp L-Ala L-His L-Lys L-Ser L-Glu L-Val L-Ala L-His L-Arg L-Phe L-Lys (Ac-DAHKSEVAHRFK; listed as Homo sapiens)
% Inhibition (decrease in absorbance compared to buffer alone) ([4]; compound:copper 1:1): 16.9% | Absorbance at 532 nm [4, 6]: 0.633 | % Inhibition (decrease in absorbance compared to buffer alone) ([4]; compound:copper 2:1): 27.5% | Absorbance at 532 nm [4, 7]: 0.692

Compound: Ala Ala His His (AAHH)
inhibition of hydroxyl radical production ([5]; 1:4 peptide:copper ratio): complete inhibition | inhibition of hydroxyl radical production [5, 8]: effectively inhibited hydroxyl radical production

Compound: Asp Ala His Lys-NH2 (DAHK-NH2)
inhibition of hydroxyl radical production [5, 8]: effectively inhibited hydroxyl radical production

Compound: Catalase
formation of the pink chromogen ([4]; catalase 0-80 nM): prevent the formation of the pink chromogen | formation of the pink chromogen ([4]; catalase with L-Asp L-Ala L-His L-Lys present at tetrapeptide/copper 1:1): prevents the formation of the pink chromogen

Compound: DAHGMTCANC (cysteine pairing not given here)
inhibition of hydroxyl radical production ([5]; 1:1 peptide:copper ratio): complete inhibition | inhibition of hydroxyl radical production [5, 8]: effectively inhibited hydroxyl radical production

Compound: DAHGMTCARC (cysteine pairing not given here)
inhibition of hydroxyl radical production [5, 8]: effectively inhibited hydroxyl radical production

Compound: L-Ala L-His L-Lys L-Ser L-Glu L-Val L-Ala L-His L-Arg L-Phe L-Lys (AHKSEVAHRFK; listed as Homo sapiens)
% Inhibition (decrease in absorbance compared to buffer alone) ([4]; compound:copper 1:1): 11.6% | Absorbance at 532 nm [4, 9]: 0.843 | % Inhibition (decrease in absorbance compared to buffer alone) ([4]; compound:copper 2:1): 95.1% | Absorbance at 532 nm [4, 10]: 0.047

Compound: L-Asp L-Ala L-His L-Lys L-Ser L-Glu L-Val L-Ala L-His L-Arg L-Phe L-Lys (DAHKSEVAHRFK; listed as Homo sapiens)
% Inhibition (decrease in absorbance compared to buffer alone) ([4]; compound:copper 1:1): 13.2% | Absorbance at 532 nm [4, 6]: 0.645 | % Inhibition (decrease in absorbance compared to buffer alone) ([4]; compound:copper 2:1): 95.8% | Absorbance at 532 nm [4, 7]: 0.040

Compound: L-His L-Lys L-Ser L-Glu L-Val L-Ala L-His L-Arg L-Phe L-Lys (HKSEVAHRFK; listed as Homo sapiens) [His Lys Ser Glu Val Ala His Arg Phe Lys]
% Inhibition (decrease in absorbance compared to buffer alone) ([4]; compound:copper 1:1): 24.9% | Absorbance at 532 nm [4, 9]: 0.716 | % Inhibition (decrease in absorbance compared to buffer alone) ([4]; compound:copper 2:1): 46.6% | Absorbance at 532 nm [4, 10]: 0.509

Compound: Ser Gly His
inhibition of hydroxyl radical production [5, 8]: effectively inhibited hydroxyl radical production

Compound: Thr Leu His
inhibition of hydroxyl radical production [5, 8]: effectively inhibited hydroxyl radical production
